Reference: patent US20220105119A1, “DELIVERY OF AEROSOLIZED MICROMOLAR COMPOSITION CONCENTRATIONS” (Amcyte Pharma Inc., priority 2020, published 2022)
“And” between values parts separate entries of the source, which are not always exact repeats. Identical values can stand only once. Like-named read-outs stand apart in the source and are kept apart here.

Key:
SARS CoV 2 [1] = type: cell-based
[2] = Related substances by HPLC after 1 week at 50° C.; type: physicochemical; settings: formulations after 1 week at 50° C., drug substance lot as used
Source text: HPLC method used renders chromatograms like the one depicted in FIG. 1 for drug substance and drug product. […] The rest of the peaks may be attributed to related substances. Related substances are substances structurally similar to the drug substance. Some of them come from synthesis impurities and are not increased during shelf life because they cannot form from degradation of the drug substance. Others are degradation products. […] (an extremely high stress condition for an MDI).

SARS CoV 2 [3] = settings: cited from earlier work
[4] = calculated
[5] = tested on: flaviviruses (yellow fever virus, West Nile virus, dengue virus, Japanese encephalitis virus, tick-borne encephalitis virus); settings: other viruses; cited from earlier work
[6] = cited from earlier work; for Maximum Plasma Concentration: single oral dose; for Time elapsed to reach maximum concentration: after ingestion
[7] = in vivo; cited from earlier work
[8] = Ali 2011; cited from earlier work

Ivermectin
IC50 as mass concentration (SARS CoV 2 [1]): 1.7 µg/mL
Related substance RRT 1.42 ([2]; alkaline degradation product): 2.9 % total HPLC area
Related substance RRT 0.39 [2]: 0.3 % total HPLC area
Related substance RRT 0.40 [2]: 0.3 % total HPLC area
Related substance RRT 0.46 [2]: 0.5 % total HPLC area
Related substance RRT 0.78 [2]: 0.1 % total HPLC area
Related substance RRT 1.52 [2]: 0.7 % total HPLC area
IC50 (SARS CoV 2 [3]; Vero cells culture, read-out: IC50, SARS CoV 2 replication): 2000 nM and ~2000 nM
reduction in viral RNA in reference to placebo (SARS CoV 2 [3]; at 5 μM, 48 hours after one single application): 5,000 fold
viral RNA reduction (SARS CoV 2 [3]; at a concentration of (equivalent to ca. 4.4 μg/mL)): ca. 5,000 times
concentration in nasal airway surface liquid ([4]; 100 μg per nostril in a 50-μL shot, liquid volume 50-375 μL): 533 µg/mL
immediate concentration in saliva ([4]; one 50-μL shot containing 100 μg, 0.8 mL saliva): 125 µg/mL
concentration range of antiviral activity [5]: 0.003 to 10 µM
Maximum Plasma Concentration ([6]; 150 μg/kg (fasted), Baraka 1996): aprox. 55 ng/mL
Maximum Plasma Concentration ([6]; 200 μg/kg (fed), Schulz 2018): 40.1 ng/mL
Maximum Plasma Concentration ([6]; 600 μg/kg (children, fed), Schulz 2019): 66.1 ng/mL
Maximum Plasma Concentration ([6]; 30 mg (fed), Guzzo 2002): 260.5 ng/mL
Maximum Plasma Concentration ([6]; 60 mg (fasted), Guzzo 2002): 186.2 ng/mL and 165.2 to 186.2 ng/mL
Maximum Plasma Concentration ([6]; 90 mg (fasted), Guzzo 2002): 158.1 ng/mL
Maximum Plasma Concentration ([6]; 120 mg (fasted), Guzzo 2002): 247.8 ng/mL
Time elapsed to reach maximum concentration ([6]; adults): 4 to 5 h
Time elapsed to reach maximum concentration ([6]; children): 6 to 7 h
Oral bioavailability [7]: 40-50%
forced degradation studies [8]: susceptible to oxidation and hydrolysis
